target: T1, A1 receptor (Mesocricetus auratus, UniProt A0A1U8BVR4); assay: Competitive binding assay, DDT1 cell membranes, [3H]CCPA; set-up: species or system hamster; conditions: [3H]CCPA 2 nM, DDT1 cell membranes; read-out: Ki-DDT1 cell membrane
T1 construct: endogenous in cells; host or cells: DDT1 (DDT1 MF-2) hamster vas deferens smooth muscle cells
T1 sequence (A0A1U8BVR4 1-326): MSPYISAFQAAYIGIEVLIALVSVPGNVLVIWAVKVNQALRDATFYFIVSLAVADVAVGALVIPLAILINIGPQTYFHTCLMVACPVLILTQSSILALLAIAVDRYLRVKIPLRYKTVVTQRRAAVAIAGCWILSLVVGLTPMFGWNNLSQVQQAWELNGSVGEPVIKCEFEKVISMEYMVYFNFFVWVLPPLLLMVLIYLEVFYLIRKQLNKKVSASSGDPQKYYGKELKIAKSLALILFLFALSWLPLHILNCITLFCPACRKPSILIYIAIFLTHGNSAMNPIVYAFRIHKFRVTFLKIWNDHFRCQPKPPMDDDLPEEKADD
Procedure: Cells were subcultured twice weekly by dispersion in Hank's Balanced Salt Solution (HBSS) without the divalent cations and containing 1 mM EDTA. The cells were then seeded in growth medium at a density of 1.2×10^5 cells per plate and experiments were performed 4 days later at approximately one day preconfluence.
Attached cells were washed twice with HBSS (2×10 ml), scraped free of the plate with the aid of a rubber policeman in 5 ml of 50 mM Tris-HCI buffer pH 7.4 at 4° C. and the suspension homogenized for 10 s. The suspension was then centrifuged at 27,000×g for 10 min. The pellet was resuspended in homogenization buffer by vortexing and centrifuged as described above. The final pellet was resuspended in 1 vol of 50 mM Tris-HCI buffer pH 7.4 containing 5 mM MgCl2 for A1 AdoR assays. For the [^35S]GTPγS binding assay the final pellet was resuspended in 50 mM Tris-HCI pH 7.4 containing 5 mM MgCl2, 100 mM NaCl and 1 mM dithiothreitol. This membrane suspension was then placed in liquid nitrogen for 10 min, thawed and used for assays.
Competitive Binding Assay Pig striatum were prepared by homogenation in 50 mM Tris buffer (5× volume of tissue mass pH=7.4). After centrifilgation at 19,000 rpm for 25 minutes at 4° C., the supernatant was discarded, and the process was repeated twice. Compositions of this invention were assayed to determine their affinity for the A1 receptor in a pig striatum membrane prep or a DDT, membrane prep. Briefly, 0.2 mg of pig striatal membranes or DDT, cell membranes were treated with adenosine deaminase and 50 mM Tris buffer (pH=7.4) followed by mixing. To the pig membranes was added 2 μL of serially diluted DMSO stock solution of the compounds of this invention at concentrations ranging from 100 microM to 10 nM. The control received 2 microL of DMSO alone, then the antagonist [^3H] 8-cyclopentylxanthine (CPX) for pig striatum or the agonist [^3H] 2-chloro-6-cyclopentyladenosine (CCPA) for DDT, membranes in Tris buffer (50 mnM, pH of 7.4) was added to achieve a final concentration of 2 nM. After incubation at 23 C for 2 h, the solutions were filtered using a membrane harvester using multiple washing of the membranes (3×). The filter disks were counted in scintillation cocktail affording the amount of displacement of triated CPX or by the competitive binding compositions of this invention. In the case of the DDT1 cell membranes, some of the determinations of binding affinity (Ki) were made in the presence of Gpp(NH)p as noted in Table 1 (note: Gpp(NH)p shifts the receptor to a low affinity form). Greater than a 5 point curve was used to generate Ki's and the number of experiments is indicated in the column marked in Table 1 below.

**Q.** With O=C(NCc1ccc(F)cc1)OCC1OC(n2cnc3c(N[C@@H]4CCOC4)ncnc32)C(O)C1O (stereo partly drawn) [Compound 30] as the compound, how does the Ki read?
**A.** Its Ki is 2210 nM.

**Q.** Which Ki does the source give for O=C(NC[C@H]1O[C@@H](n2cnc3c(N[C@@H]4CCOC4)ncnc32)[C@H](O)[C@@H]1O)NC1CCCC1 [Compound 76, N-[(5-{6[((3R)oxolan-3yl)amino]purin-9-yl}(3S,2R,4R,5R)3,4-dihydroxyoxolan-2-yl)methyl](cyclopentylamino)carboxamide] here?
**A.** Its Ki is 11600 nM.

**Q.** How did the Ki turn out when O=C(NC1CCCC1)OCC1OC(n2cnc3c(N[C@@H]4CCOC4)ncnc32)C(O)C1O (stereo partly drawn) [Compound 28] was run?
**A.** Its Ki is 32 nM.

same assay, conditions: [3H]CCPA 2 nM, in presence of Gpp(NH)p (low affinity form); read-out: Ki - DDT1 cell membrane In presence of Gpp (NH)p

**Q.** Which Ki does the source give for O=C(NC1CCCCC1)OC[C@H]1O[C@@H](n2cnc3c(N[C@@H]4CCOC4)ncnc32)[C@H](O)[C@@H]1O [Compound 31, {(5-{6-[((3R)oxolan-3-yl)amino]purin-9-yl}(3S,2R,4R,5R)3,4-dihydroxyoxolan-2-yl)methoxy]-N-cyclohexylcarboxamide] here?
**A.** Its Ki is 1090 nM.

**Q.** With CN(C)C(=O)OC[C@H]1O[C@@H](n2cnc3c(N[C@@H]4CCOC4)ncnc32)[C@H](O)[C@@H]1O [Compound 44, {(5-{6-[((3R)oxolan-3-yl)amino]purin-9-yl}(3S,2R,4R,5R)-3,4-dihydroxyoxolan-2-yl)methoxy]-N,N-dimethylcarboxamide] as the compound, how does the Ki read?
**A.** The Ki was 1840 nM.

**Q.** O=C(NC1CC1)OCC1OC(n2cnc3c(N[C@@H]4CCOC4)ncnc32)C(O)C1O (stereo partly drawn) [Compound 33] was tested. Which Ki did it give?
**A.** The Ki was 1710 nM.

**Q.** For O=C(NCc1ccc(F)cc1)OCC1OC(n2cnc3c(N[C@@H]4CCOC4)ncnc32)C(O)C1O (stereo partly drawn) [Compound 30], which Ki is on record?
**A.** Its Ki is 1730 nM.

**Q.** Which Ki does the source give for O=C(NCc1ccccc1)OC[C@H]1O[C@@H](n2cnc3c(N[C@@H]4CCOC4)ncnc32)[C@H](O)[C@@H]1O [Compound 29, [(5-{6-[((3R)oxolan-3-yl)amino]purin-9-yl}(3S,2R,4R,5R)-3,4dihydroxyoxolan-2-yl)methoxy]-N-benzylcarboxamide] here?
**A.** The Ki was 478 nM.

**Q.** Which Ki does the source give for CCNC(=O)NCC1OC(n2cnc3c(NC4CCOC4)ncnc32)C(O)C1O [Compound 79, N-[(5-{16[((3R)oxolan-3-yl)amino]purin-9-yI}(3S,2R,4R,5R3,4-dihydroxyoxolan-2-yl)methyl](ethylamino)carboxamide] here?
**A.** The Ki was 167 nM.

**Q.** For O[C@@H]1[C@H](O)[C@@H](COC(=S)NC2CCCC2)O[C@H]1n1cnc2c(N[C@@H]3CCOC3)ncnc21 [Compound 51, 2-{6-[((3R)oxolan-3-yl)amino]purin-9-yl}(4S,2R,3R,5R)-5{[(cyclopentylamino)thioxomethoxy]methyl}oxolane3,4-diol], which Ki is on record?
**A.** Its Ki is 87 nM.

**Q.** How did the Ki turn out when CCNC(=O)OC[C@H]1O[C@@H](n2cnc3c(N[C@@H]4CCOC4)ncnc32)[C@H](O)[C@@H]1O [Compound 25, [(5-{6-[((3R)oxolan-3-yl)amino]purin-9-yl}(3S,2R,4R,5R)-3,4-dihydroxyoxolan-2-yl)methoxy]-N-ethylcarboxamide] was run?
**A.** The Ki was 727 nM.

**Q.** How did the Ki turn out when O=C(NC1CCCC1)OCC1OC(n2cnc3c(N[C@@H]4CCOC4)ncnc32)C(O)C1O (stereo partly drawn) [Compound 28] was run?
**A.** Its Ki is 808 nM.

— patent publication US20020037872A1, “N6 heterocyclic 5' modified adenosine derivatives” (CV Therapeutics, Inc., priority 1999, published 2002)
